Assay [1] has as its system phospho/total Akt in primary murine aortic SMCs. Description: CML-AGE-stimulated Akt phosphorylation, Western blot. Format: cell-based. As to conditions: 1 µM compound, 1.5 h pretreatment; CML-AGE 10 µg/ml 20 min; p < 0.05. An excerpt:
(§1) We tested the effects of compounds 1–13 on cellular signaling in primary murine aortic SMCs. […] In primary murine aortic SMCs, we tested the effects of CML-AGE RAGE ligand on Akt and ERK1/2 phosphorylation, as these pathways are seminally linked to fundamental properties of these cells and their responses to stress, such as growth, proliferation, hypertrophy, migration, and survival.
(§2) Figure 3 Effects of compounds 1–13 on RAGE ligand-stimulated phosphorylation of ERK and AKT in primary murine aortic SMCs. Primary murine SMCs were incubated with compounds 1–13 (1 μM) for 1.5 h and then treated with RAGE ligand CML-AGE (10 μg/ml) for 20 minutes. Cells were harvested and total lysates were subjected to Western blotting with antibodies against phospho-ERK and phospho-AKT. Blots were then re-probed with antibodies to total-ERK and total-AKT and relative optical density (ROD) is reported. (a) Quantified levels of phosphorylated/total ERK normalized to total ERK are shown. (b) Quantified levels of phosphorylated/total AKT normalized to total AKT are shown. Assays results shown are representative of three independent experiments. Error bars represent SEM. *indicates p < 0.05 comparing CML-AGE vs. CML-AGE and compound treatment and ^#indicates p < 0.001 comparing CML-AGE vs. serum free medium (SFM) alone vehicle. Above each Western blot, S = serum-free medium and C = CML-AGE; numbers above the blots indicate the compound number.
(§3) Total protein extracts were prepared from primary murine aortic smooth muscle cells using cell lysis buffer (Cell Signaling Technology, Beverly, MA). Equal amounts of protein (30 μg/sample) were subjected to SDS-PAGE (4–12%) followed by electrophoretic transfer to nitrocellulose membranes. Nonspecific binding was blocked by incubation of membranes with BSA (5%) for 1 h. The blot was incubated with one of the following antibodies as the primary antibody for the reaction: anti-phospho-ERK1/2 (P-ERK1/2) IgG, anti-total-ERK1/2 (T-ERK1/2) IgG, anti-phospho-AKT (P-AKT) IgG, and anti-total-AKT (T-AKT) IgG (Cell Signaling Technology). Each primary antibody was used at a dilution of 1:1,000 overnight at 4 °C according to the manufacturer’s instructions. Horseradish peroxidase-conjugated secondary antibodies (1:2,500; Amersham Biosciences) were used to identify sites of binding of each primary antibody.
(§4) Murine vascular SMCs were cultured from the aortas of 10-week old male mice using a modification of the procedure of Travo and Barret[68]. SMCs were cultured following an explant protocol in accordance with institutional guidelines. Wild-type murine aortic vascular SMCs were isolated and used between passages 8 to 12. Human aortic vascular smooth muscle cells were purchased from American Type Culture Collection (ATCC, Manassas, VA) and cultured according to the methods recommended by ATCC. Murine primary aortic endothelial cells were from 6- to 8-week-old wild-type C57BL/6J mice (Jackson Laboratories, Bar Harbor ME) and used under passage 10[69]. THP-1 cells were obtained from the American Type Tissue Collection (ATCC, Manassas VA) and used according to the manufacturer’s instructions.

Assay [2] has as its system Il6 mRNA in primary murine aortic endothelial cells (MAECs). Nature of the assay: CML-AGE-mediated upregulation of Il6 mRNA, real-time quantitative PCR. It counts as cell-based. The note with it: 1 µM compound 1.5 h, CML-AGE 10 µg/ml 6 h. The protocol:
First, we tested the effects of RAGE ligand CML-AGE in primary murine aortic endothelial cells (MAECs). […] To assess the effects of the compounds, we pre-treated MAECs for 1.5 h with compounds 1–13 (1 μM).
Figure 5 Effects of compounds 1–13 on RAGE ligand-stimulated inflammatory gene expression in primary murine aortic endothelial cells and human THP-1 cells. Primary murine aortic endothelial cells (a,b) or human THP1 cells (c,d) were subjected to 1.5 h incubation with compounds 1–13 (1 μM) followed by stimulation with CML-AGE (10 μg/ml) for 6 h. Cells were then harvested and gene expression of the inflammatory markers Tnfα and Il6 normalized to β-actin (a,b) or 18s rRNA (c,d) was performed. Assays were performed in triplicate and results are representative of three independent experiments. Error bars represent SEM. *indicates p < 0.05 comparing CML-AGE vs. CML-AGE and compound treatment ^#indicates p < 0.001 comparing CML-AGE vs. SFM vehicle (SFM).
(§5) Total RNA was extracted from cells and tissues using the RNeasy lipid kit (Qiagen, Hilden, Germany). cDNA was synthesized with MultiScribe reverse transcriptase (Applied Biosystems, Foster City, CA). Real-time quantitative PCR was performed using the TaqMan method (50 °C for 2 min, 95 °C for 10 min, and 40 cycles of 95 °C for 15 s and 60 °C for 1 min) with premade primer sets (Applied Biosystems). The relative abundance of transcripts was normalized according to the expression of 18S rRNA (for human cells) or β-actin (for murine cells and tissues) using the ΔΔCt method. Supplementary Table S4 lists the specific primers used in the outlined studies.

Assay [3] relates to Tnfa mRNA in kidney. Nature of the assay: CML-AGE infusion in vivo, kidney Tnfa mRNA. On the set-up: species or system C57BL/6J mice. The note with it: mice; four doses 5 mg/kg i.p. every 12 h; CML-AGE 150 µg i.p.; kidney 4 h later; p < 0.05. The procedure: Next, it was essential to test the ability of the thirteen compounds to block RAGE ligand-mediated inflammation in vivo. […] To test this concept in the present study, we treated wild-type mice with CML-AGE (150 μg) by intraperitoneal injection after pretreatment with four doses of compounds 1–13 (5 mg/kg per dose, 12 h apart). Thirty minutes after the fourth dose of compound, mice were injected with CML-AGE and sacrificed 4 h later. Kidney tissue was retrieved and subjected to real-time quantitative PCR for detection of transcripts encoding inflammatory mediators.
Figure 6 Effect of compounds 1–13 in vivo. (a,b) C57BL/6J mice were subjected to intraperitoneal administration of four doses of compounds 1–13 (5 mg/kg every 12 h) or equal volumes of vehicle (PBS). Thirty minutes after the final injection, mice were injected with CML-AGE (150 μg) by intraperitoneal administration. Four h later, mice were sacrificed and kidney was retrieved. Real time quantitative PCR was performed for detection of Tnfa (a) and Il6 (b). (c) Assessment of compounds on cardiac functional recovery in diabetes. C57BL/6 mice were rendered type 1 diabetic with streptozotocin. After a mean range of 37–45 days of untreated hyperglycemia, mice were sacrificed and hearts rapidly retrieved for assessment of the efficacy of compounds 1–13 (1 μM) or vehicle, DMSO, on left ventricular developed pressure (LVDP) after ischemia. All hearts were subjected to 30 minutes of global ischemia followed by 60 min of reperfusion. Test compounds were introduced 10 minutes prior to the start of ischemia and continued throughout the reperfusion protocol. In (a–c), N = 5–6 mice per group. Error bars represent SEM. In (a–c), *indicates p < 0.05 vs. respective control, and in (a,b), ^#indicates p < 0.001 comparing CML-AGE vs. PBS treatment.
as §5
Male, wild-type C57BL/6J mice were purchased from the Jackson Laboratories. At age 8 weeks, mice were pretreated with 4 doses of compounds 1–13, 5 mg/kg, by intraperitoneal administration twice daily for a total of two days and four total doses. Control treatment consisted of DMSO diluted into PBS. Thirty minutes after the last dose, CML-AGE (150 μg) was injected by intraperitoneal route. 4 h later, mice were sacrificed and kidney tissue was rapidly retrieved for preparation of mRNA and performance of real time quantitative PCR for the following mRNA transcripts, Tnfa and Il6.

In assay [4] the test system is phospho/total ERK1/2 in primary murine aortic SMCs. Nature of the assay: CML-AGE-stimulated ERK1/2 phosphorylation, Western blot. Format: cell-based. The note with it: 1 µM compound, 1.5 h pretreatment; CML-AGE 10 µg/ml 20 min; p < 0.05.
Excerpt: as §1, §2, §3, §4

Assay [5] concerns diabetic mouse heart (ex vivo). Description: Isolated perfused diabetic heart, ischemia/reperfusion, LVDP recovery. As to conditions: streptozotocin-diabetic mouse hearts ex vivo; 1 µM compound; 30 min ischemia, 60 min reperfusion; p < 0.05. Details: species or system C57BL/6 mice. The protocol: Figure 6 Effect of compounds 1–13 in vivo. (a,b) C57BL/6J mice were subjected to intraperitoneal administration of four doses of compounds 1–13 (5 mg/kg every 12 h) or equal volumes of vehicle (PBS). Thirty minutes after the final injection, mice were injected with CML-AGE (150 μg) by intraperitoneal administration. Four h later, mice were sacrificed and kidney was retrieved. Real time quantitative PCR was performed for detection of Tnfa (a) and Il6 (b). (c) Assessment of compounds on cardiac functional recovery in diabetes. C57BL/6 mice were rendered type 1 diabetic with streptozotocin. […]
Finally, we tested the effects of these compounds in settings in which RAGE ligands naturally accumulate, particularly the diabetic heart. […] At the end of reperfusion, we measured left ventricular developed pressure (LVDP) in the hearts, a key measure of functional recovery after injury.
Male C57BL/6 mice, age 8–12 weeks, were purchased from The Jackson Laboratory and rendered diabetic by 55 mg/kg by intraperitoneal route of streptozotocin (STZ) (Sigma Aldrich, St. Louis MO) per day in fresh citrate buffer (0.05 mol/l; pH 4.5) for 5 consecutive days. […] Left ventricular developed pressure (LVDP) was measured using a latex balloon in the left ventricle and monitored continuously on an ADI recorder. […]

Each structure is given as a SMILES string.

Consider `Cc1ccc(S(=O)(=O)N(C)C(F)F)cc1` [Compound 8], for which the “effect on CML-AGE-mediated stimulation of phospho/total-Akt” value (from here on “effect … of phospho/total-Akt”) in assay [1] was “did not significantly suppress”. For the same compound, the “effect on CML-AGE-mediated upregulation of Il6” value (shortened to “effect … of Il6”) in assay [2] was “significant suppression”. For the same compound, the “effect on CML-AGE-mediated upregulation of Tnfa mRNA in kidney” value (shortened to “effect … in kidney”) in assay [3] was “significant suppression”. Moreover, the “effect on CML-AGE-mediated phospho/total ERK1/2” value in assay [4] is on record as “did not significantly affect”.
`Cc1nc2ccccc2n1CC(O)Cn1c2ccccc2c2ccccc21` (centres unmarked) [Compound 3]: in assay [5], the “left ventricular developed pressure (LVDP) functional recovery after ischemia/reperfusion vs DMSO vehicle” value is recorded as “statistically-significantly higher LVDP”. Besides, the “effect … of phospho/total-Akt” value in assay [1] is “significant suppression”. The “effect … of Il6” value in assay [2] is recorded as “significant suppression”. In addition, in assay [3], the “effect … in kidney” value is given as “significant suppression”. For the same compound, the “effect on CML-AGE-mediated phospho/total ERK1/2” value in assay [4] is reported as “significant suppression”.
Consider `COc1cc(SC)ccc1C(=O)Nc1cccc(C)n1` [Compound 1], for which, in assay [1], the “effect … of phospho/total-Akt” value was “significant suppression”. Further, the “effect … of Il6” value in assay [2] is “significant suppression”. For the same compound, the “effect … in kidney” value in assay [3] is given as “significant suppression”. Also, the “effect on CML-AGE-mediated phospho/total ERK1/2” value in assay [4] is listed as “significant suppression”.
On to `Cl.Oc1cccc(Nc2nc(-c3ccc(F)cc3F)cs2)c1` [Compound 5], for which the “effect … of phospho/total-Akt” value in assay [1] is “did not significantly suppress”. Moreover, in assay [2], the “effect … of Il6” value is “significant suppression”. Also, the “effect … in kidney” value in assay [3] is “significant suppression”. In addition, the “effect on CML-AGE-mediated phospho/total ERK1/2” value in assay [4] was “significant suppression”.
Turning to `OC(Cn1ccc2ccccc21)Cn1cnc2ccccc21` (centres unmarked) [Compound 4], the “effect … of phospho/total-Akt” value in assay [1] is “significant suppression”. Further, in assay [2], the “effect … of Il6” value is given as “significant suppression”. The “effect on CML-AGE-mediated phospho/total ERK1/2” value in assay [4] is given as “significant suppression”.
With `C=CCOc1ccc2c(C(F)(F)F)cc(=O)oc2c1` [Compound 2], the “effect … of phospho/total-Akt” value in assay [1] is “significant suppression”. Further, the “effect … of Il6” value in assay [2] is given as “significant suppression”. Also, the “effect … in kidney” value in assay [3] was “significant suppression”. Also, in assay [4], the “effect on CML-AGE-mediated phospho/total ERK1/2” value is recorded as “significant suppression”.
As to `COc1cc(NC(C)=O)c(Cl)cc1C(=O)Nc1nccs1` [Compound 6], the “effect … of phospho/total-Akt” value in assay [1] is “significant suppression”. The “effect … of Il6” value in assay [2] was “significant suppression”. Further, in assay [3], the “effect … in kidney” value is recorded as “significant suppression”. Further, the “effect on CML-AGE-mediated phospho/total ERK1/2” value in assay [4] is recorded as “did not significantly affect”.
In the case of `COC(=O)c1cc(OC)c(OC)cc1NC(=O)C1Oc2ccccc2OC1C` (centres unmarked) [Compound 7], the “left ventricular developed pressure (LVDP) functional recovery after ischemia/reperfusion vs DMSO vehicle” value in assay [5] is “statistically-significantly higher LVDP”. Further, the “effect … of phospho/total-Akt” value in assay [1] is “did not significantly suppress”. Moreover, the “effect … of Il6” value in assay [2] was “significant suppression”. Also, in assay [4], the “effect on CML-AGE-mediated phospho/total ERK1/2” value is given as “did not significantly affect”.

The record behind these values is PMC4776135, “Small Molecule Inhibition of Ligand-Stimulated RAGE-DIAPH1 Signal Transduction” (Scientific Reports, 2016).
